From US7250399B2, “Compounds having growth hormone releasing activity” (The Administrators of the Tulane Educational Fund, priority 1998, dated 2007)
Values joined by “and” are separate entries in the source; they are usually repeats but may differ in a detail not shown here. Identical values can stand only once.

How the values were obtained:
Growth Hormone release [1] = experiment: In Vitro Release of Growth Hormone in Rat; format: cell-based
Method: (§1) In vitro and in vivo activity of certain compounds were determined in rats and adult beagle dogs (in vivo activity only).

Growth Hormone release [2] = experiment: In Vivo Release of Growth Hormone in Adult Beagle Dogs; set-up: unit not given here
Method: as §1

Growth Hormone release [3] = experiment: In Vivo GH Release in Rats (i.v., serum GH by RIA); set-up: species or system Sprague-Dawley rats; settings: i.v., serum 10 min after injection
Method: Immature female Sprague-Dawley rats were obtained from the Charles River Laboratories (Wilmington, Mass.). After arrival they were housed at 25° C. with a 14:10 hour light:dark cycle. Water and Purina rat chow were available ad libitum. Pups were kept with their mothers until 21 days of age.
Twenty-six day old rats, six rats per treatment group, were anesthetized interperitoneally with 50 mg/kg of pentobarbital 20 minutes prior to i.v. treatment with peptide. Normal saline with 0.1% gelatin was the vehicle for intravenous (i.v.) injections of the peptides. The anesthetized rats, weighing 55-65 grams, were injected i.v. with the quantity of grown hormone releasing compounds indicated in Table 3. Injection was made as a 0.1 mL solution into the jugular vein.
All animals were sacrificed by guillotine 10 minutes after final test injection (see Table 3). Trunk blood for the determination of blood GH levels was collected following decapitation. After allowing the blood to clot, it was centrifuged and the serum was separated from the clot. Serum was kept frozen until the day of sampling for radioimmunoassay (RIA) determination of growth hormone levels according to the following procedure, as developed by the National Institute of Arthritis, Diabetes and Digestive and Kidney Diseases (NIADDK).
Reagents are generally added to the RIA analysis tubes at a single sitting, at refrigerator temperature (about 4° C.) in the following sequence: • (a) buffer, • (b) “cold” (i.e., non-radioactive) standard or unknown serum sample to be analyzed, • (c) radio-iodinated growth hormone antigen, and • (d) growth hormone antiserum.
Reagent addition is generally carried out so that there is achieved a final RIA tube dilution of about 1:30,000 (antiserum to total liquid volume; vol:vol).
The mixed reagents are then typically incubated at room temperature (about 25° C.) for about 24 hours prior to addition of a second antibody (e.g., goat or rabbit anti-monkey gamma globulin serum) which binds to and causes precipitation of the complexed growth hormone antiserum. Precipitated contents of the RIA tubes are then analyzed for the number of counts in a specified period of time in a gamma scintillation counter. A standard curve is prepared by plotting number of radioactive counts versus growth hormone (GH) level. GH levels of unknown are then determined by reference to the standard curve.
Serum GH was measured by RIA with reagents provided by the National Hormone and Pituitary Program.
Serum levels in Tables 3 and 4 are recorded in ng/mL in terms of the rat GH standard of 0.61 International Units/mg (IU/mg). Data is recorded as the mean ±standard error of the mean (SEM). Statistical analysis was performed with Student's t-test. In Table 3, the results shown are the average of studies with six rats.

[4] = compound at .001 (dose unit not given)
[5] = compound at .003 (dose unit not given)
[6] = compound at .01 (dose unit not given)
[7] = compound at .1 (dose unit not given)
[8] = compound at .3 (dose unit not given)
[9] = oral dose 1 mg/kg, time 0.5 hr, 1 mg/kg
[10] = oral dose 1 mg/kg, time 1 hr, 1 mg/kg
[11] = oral dose 1 mg/kg, time 2 hr, 1 mg/kg
[12] = oral dose 1 mg/kg, time 3 hr, 1 mg/kg
[13] = compound at 3 (dose unit not given)
[14] = compound at 10 (dose unit not given)
[15] = compound at 30 (dose unit not given)
[16] = compound at .0001 (dose unit not given)
[17] = compound at .0003 (dose unit not given)
[18] = oral dose 4 mg/kg, time 6 hr, 4 mg/kg
[19] = oral dose 4F [sic] (mg/kg; F not explained), time 0 hr
[20] = oral dose 4F [sic] (mg/kg; F not explained), time 2 hr
[21] = oral dose 4F [sic] (mg/kg; F not explained), time 4 hr
[22] = oral dose 4F [sic] (mg/kg; F not explained), time 5 hr
[23] = compound at 1 (dose unit not given)

Compound	In Vitro Release of Growth Hormone in Rat, GH (Growth Hormone release [1]; [4]) [ng/mL]	In Vitro Release of Growth Hormone in Rat, GH (Growth Hormone release [1]; [5]) [ng/mL]	In Vitro Release of Growth Hormone in Rat, GH (Growth Hormone release [1]; [6]) [ng/mL]	In Vivo Release of Growth Hormone in Adult Beagle Dogs (Growth Hormone release [2]; [9])	In Vivo Release of Growth Hormone in Adult Beagle Dogs (Growth Hormone release [2]; [10])	In Vivo Release of Growth Hormone in Adult Beagle Dogs (Growth Hormone release [2]; [11])	In Vivo Release of Growth Hormone in Adult Beagle Dogs (Growth Hormone release [2]; [12])	In Vivo Release of Growth Hormone in Rat, GH (Growth Hormone release [3]; [13]) [ng/mL]	In Vivo Release of Growth Hormone in Rat, GH (Growth Hormone release [3]; [14]) [ng/mL]	In Vivo Release of Growth Hormone in Rat, GH (Growth Hormone release [3]; [15]) [ng/mL]	In Vitro Release of Growth Hormone in Rat, GH (Growth Hormone release [1]; [16]) [ng/mL]	In Vitro Release of Growth Hormone in Rat, GH (Growth Hormone release [1]; [17]) [ng/mL]	In Vivo Release of Growth Hormone in Adult Beagle Dogs (Growth Hormone release [2]; oral dose 2 mg/kg, time 0.5 hr)	In Vivo Release of Growth Hormone in Adult Beagle Dogs (Growth Hormone release [2]; oral dose 2 mg/kg, time 1 hr)	In Vivo Release of Growth Hormone in Adult Beagle Dogs (Growth Hormone release [2]; oral dose 2 mg/kg, time 2 hr)	In Vivo Release of Growth Hormone in Adult Beagle Dogs (Growth Hormone release [2]; oral dose 2 mg/kg, time 3 hr)	In Vivo Release of Growth Hormone in Adult Beagle Dogs (Growth Hormone release [2]; oral dose 2 mg/kg, time 4 hr)	In Vivo Release of Growth Hormone in Adult Beagle Dogs (Growth Hormone release [2]; oral dose 2 mg/kg, time 6 hr)	In Vivo Release of Growth Hormone in Adult Beagle Dogs (Growth Hormone release [2]; oral dose 2 mg/kg, time 7 hr)	In Vivo Release of Growth Hormone in Adult Beagle Dogs (Growth Hormone release [2]; [18])	also measured
N-2-hydroxylethyl-Aib-DTrp-DPro-diisobutylamide [R^1 = -N-2-OHethyl/DPro-diisobutylamide]	452	326	526	102 and 62	26 and 30	25 and 19	10	156	259	451											In Vitro Release of Growth Hormone in Rat, GH (Growth Hormone release [1]; compound at .03 (dose unit not given)): 820 ng/mL; In Vitro Release of Growth Hormone in Rat, GH (Growth Hormone release [1]; [7]): 1163 ng/mL; In Vitro Release of Growth Hormone in Rat, GH (Growth Hormone release [1]; [8]): 1217 ng/mL; In Vivo Release of Growth Hormone in Adult Beagle Dogs (Growth Hormone release [2]; oral dose 1 mg/kg, time 4 hr, 1 mg/kg): 6.1 and 3.8; In Vivo Release of Growth Hormone in Adult Beagle Dogs (Growth Hormone release [2]; oral dose 1 mg/kg, time 6 hr, 1 mg/kg): 4.0 and 2.5
Aib-DTrp-DPro-3-methylpiperidinamide [DPro-m-methylpiperidine]	633	837	968	53 and 63	19 and 32	15 and 17	9.6 and 13	832	1557	1570	434	458	128	59	29	12	8.9	3	3	11	In Vivo Release of Growth Hormone in Adult Beagle Dogs (Growth Hormone release [2]; oral dose 1 mg/kg, time 0 hr, 1 mg/kg): 2; In Vivo Release of Growth Hormone in Adult Beagle Dogs (Growth Hormone release [2]; oral dose 1 mg/kg, time 5 hr, 1 mg/kg): 2.2 and 1.5; In Vivo Release of Growth Hormone in Adult Beagle Dogs (Growth Hormone release [2]; oral dose 1 mg/kg, time 7 hr, 1 mg/kg): 2.2 and 3; In Vivo Release of Growth Hormone in Adult Beagle Dogs (Growth Hormone release [2]; oral dose 1 mg/kg, time 8 hr, 1 mg/kg): 1; In Vivo Release of Growth Hormone in Adult Beagle Dogs (Growth Hormone release [2]; oral dose 4 mg/kg, time 1 hr): 55; In Vivo Release of Growth Hormone in Adult Beagle Dogs (Growth Hormone release [2]; oral dose 4 mg/kg, time 2 hr, 4 mg/kg): 50 and 54; In Vivo Release of Growth Hormone in Adult Beagle Dogs (Growth Hormone release [2]; oral dose 4 mg/kg, time 3 hr, 4 mg/kg): 52 and 53; In Vivo Release of Growth Hormone in Adult Beagle Dogs (Growth Hormone release [2]; oral dose 4 mg/kg, time 4 hr, 4 mg/kg): 20 and 34; In Vivo Release of Growth Hormone in Adult Beagle Dogs (Growth Hormone release [2]; oral dose 4 mg/kg, time 7 hr, 4 mg/kg): 11; In Vivo Release of Growth Hormone in Adult Beagle Dogs (Growth Hormone release [2]; [19]): 1.4; In Vivo Release of Growth Hormone in Adult Beagle Dogs (Growth Hormone release [2]; oral dose 4F [sic] (mg/kg; F not explained), time 0.5 hr): 72; In Vivo Release of Growth Hormone in Adult Beagle Dogs (Growth Hormone release [2]; oral dose 4F [sic] (mg/kg; F not explained), time 1 hr): 84; In Vivo Release of Growth Hormone in Adult Beagle Dogs (Growth Hormone release [2]; [20]): 18; In Vivo Release of Growth Hormone in Adult Beagle Dogs (Growth Hormone release [2]; oral dose 4F [sic] (mg/kg; F not explained), time 3 hr): 4.7; In Vivo Release of Growth Hormone in Adult Beagle Dogs (Growth Hormone release [2]; [21]): 3.5; In Vivo Release of Growth Hormone in Adult Beagle Dogs (Growth Hormone release [2]; [22]): 1.4; In Vivo Release of Growth Hormone in Rat, GH (Growth Hormone release [3]; compound at 100 (dose unit not given)): 1762 ng/mL
Aib-DTrp-DTrp-Phe-Arg-5-aminopentylamide [DTrpPhe-Arg-5-amino pentamide]	1712	1648	1621					2929			1228	1416	83	20	6.8	3.9	2.9	3.1	3.3		In Vivo Release of Growth Hormone in Adult Beagle Dogs (Growth Hormone release [2]; oral dose 1 mg/kg, time 0 hr): 2.5; In Vivo Release of Growth Hormone in Adult Beagle Dogs (Growth Hormone release [2]; oral dose 1 mg/kg, time 0.5 hr): 38; In Vivo Release of Growth Hormone in Adult Beagle Dogs (Growth Hormone release [2]; oral dose 1 mg/kg, time 1 hr): 8.5; In Vivo Release of Growth Hormone in Adult Beagle Dogs (Growth Hormone release [2]; oral dose 1 mg/kg, time 2 hr): 2.8; In Vivo Release of Growth Hormone in Adult Beagle Dogs (Growth Hormone release [2]; oral dose 1 mg/kg, time 3 hr): 2.3; In Vivo Release of Growth Hormone in Adult Beagle Dogs (Growth Hormone release [2]; oral dose 1 mg/kg, time 4 hr): 1.4; In Vivo Release of Growth Hormone in Adult Beagle Dogs (Growth Hormone release [2]; oral dose 1 mg/kg, time 5 hr): 1.7; In Vivo Release of Growth Hormone in Adult Beagle Dogs (Growth Hormone release [2]; oral dose 1 mg/kg, time 6 hr): 2.1; In Vivo Release of Growth Hormone in Adult Beagle Dogs (Growth Hormone release [2]; oral dose 1 mg/kg, time 7 hr): 2; In Vivo Release of Growth Hormone in Adult Beagle Dogs (Growth Hormone release [2]; oral dose 1 mg/kg, time 8 hr): 0.8; In Vivo Release of Growth Hormone in Adult Beagle Dogs (Growth Hormone release [2]; oral dose 2 mg/kg, time 0 hr): 3.1; In Vivo Release of Growth Hormone in Adult Beagle Dogs (Growth Hormone release [2]; oral dose 2 mg/kg, time 5 hr): 3.3; In Vivo Release of Growth Hormone in Adult Beagle Dogs (Growth Hormone release [2]; oral dose 2 mg/kg, time 8 hr): 3; In Vivo Release of Growth Hormone in Rat, GH (Growth Hormone release [3]; [23]): 2272 ng/mL; In Vivo Release of Growth Hormone in Rat, GH (Growth Hormone release [3]; [7]): 262 ng/mL; In Vivo Release of Growth Hormone in Rat, GH (Growth Hormone release [3]; [8]): 274 ng/mL
CCN(CC)C(=O)C1CCCNC1 (centres unmarked) [N,N-diethylnipecotamide]	489	536	642					2070	2896	2186	418	395								1.9 and 2.1	In Vivo Release of Growth Hormone in Adult Beagle Dogs (Growth Hormone release [2]; oral dose 4 mg/kg, time 0 hr, 4 mg/kg): 1.7 and 0.9; In Vivo Release of Growth Hormone in Adult Beagle Dogs (Growth Hormone release [2]; oral dose 4 mg/kg, time 0.5 hr, 4 mg/kg): 57 and 43; In Vivo Release of Growth Hormone in Adult Beagle Dogs (Growth Hormone release [2]; oral dose 4 mg/kg, time 1 hr, 4 mg/kg): 13 and 8; In Vivo Release of Growth Hormone in Adult Beagle Dogs (Growth Hormone release [2]; oral dose 4 mg/kg, time 8 hr, 4 mg/kg): 1.7 and 0.9; In Vivo Release of Growth Hormone in Adult Beagle Dogs (Growth Hormone release [2]; [19]): 2.7; In Vivo Release of Growth Hormone in Adult Beagle Dogs (Growth Hormone release [2]; [20]): 3.7; In Vivo Release of Growth Hormone in Adult Beagle Dogs (Growth Hormone release [2]; [21]): 0.9; In Vivo Release of Growth Hormone in Adult Beagle Dogs (Growth Hormone release [2]; [22]): 10; In Vivo Release of Growth Hormone in Adult Beagle Dogs (Growth Hormone release [2]; oral dose 4F [sic] (mg/kg; F not explained), time 8 hr): 3.5; In Vivo Release of Growth Hormone in Rat, GH (Growth Hormone release [3]; [23]): 928 ng/mL; In Vivo Release of Growth Hormone in Rat, GH (Growth Hormone release [3]; [8]): 221 ng/mL
